Results taken from patent US9630984B2, “Compound contained in manuka honey and use of same” (HEALTHCARE SYSTEMS, priority 2011, dated 2017).

Molecular target: T1, human MPO (Homo sapiens, UniProt P05164)
T1 sequence (P05164 49-745): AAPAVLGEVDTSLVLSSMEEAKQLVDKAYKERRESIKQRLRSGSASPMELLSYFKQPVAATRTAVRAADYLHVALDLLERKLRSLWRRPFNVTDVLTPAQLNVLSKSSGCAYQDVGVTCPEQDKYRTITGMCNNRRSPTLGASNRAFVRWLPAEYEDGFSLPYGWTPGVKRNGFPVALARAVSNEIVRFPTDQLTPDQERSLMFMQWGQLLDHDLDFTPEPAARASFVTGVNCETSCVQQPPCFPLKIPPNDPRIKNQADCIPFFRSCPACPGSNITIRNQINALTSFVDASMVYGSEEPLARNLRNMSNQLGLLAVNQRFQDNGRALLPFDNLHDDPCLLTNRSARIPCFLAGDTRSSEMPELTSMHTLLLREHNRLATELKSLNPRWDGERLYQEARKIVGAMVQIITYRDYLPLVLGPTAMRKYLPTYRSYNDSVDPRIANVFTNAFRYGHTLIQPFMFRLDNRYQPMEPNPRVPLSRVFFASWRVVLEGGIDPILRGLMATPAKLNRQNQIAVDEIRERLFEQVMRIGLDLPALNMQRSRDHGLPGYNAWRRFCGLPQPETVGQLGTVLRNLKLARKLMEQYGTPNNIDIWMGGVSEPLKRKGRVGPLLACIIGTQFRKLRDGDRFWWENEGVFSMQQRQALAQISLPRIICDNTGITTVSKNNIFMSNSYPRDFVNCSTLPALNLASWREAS
Test: MPO inhibition activity: inhibition of halogenation of tyrosine residues of biotin-labeled BSA (ELISA with 3A5 antibody)
Assay type: biochemical
Details: sample prepared to 5 mM, 10 μl in about 110 μl reaction; 30 minutes at 37° C.; absorbancy 450 nm/550 nm
Procedure: The MPO inhibition activities of the isolated MGGD and its aglycon MSYR were measured by evaluating inhibition of the halogenation of the tyrosine residues of a biotin-labeled protein (bovine serum albumin). It is thus possible to measure either inhibition of the MPO enzyme itself or the ability to extinguish or capture hypobromous acid (HOBr) and other active species produced by the enzyme.
The necessary solutions and the like for the reaction were prepared as follows.
(2) Xanthine oxidase (XOD) (Sigma X4500-25UN) diluted 100× with water.
(4) Biotin-BSA (Sigma-A6043-10MG) dissolved to 1 mg/ml in 0.1 M phosphate buffer with 200 μM NaBr and 200 mM NaCl added in advance, then freeze dried for storage, and diluted to 0.4 mg/ml before use.
(5) Sample prepared to 5 mM.
(6) Reduced glutathione (GSH) (Sigma G-6529) as a positive control.
(7) L-methionine, dissolved in water to 10 mM. […]
50 μl of a 10 μg/ml concentration 3A5 antibody (Nikken Seil) recognizing dihalogenated tyrosines was coated as a primary antibody on each microplate, and left standing overnight at 4° C. […] This was then left standing again for 45 minutes at 37° C. and washed, after which 100 μl of a TMB (3,3′-5,5′-tetramethylbentidine) coloring reagent (A liquid/B liquid=1/1) was added, and absorbancy was measured at 450 nm/550 nm for about 10 minutes with a microplate reader.

- MPO enzyme inhibition activity (halogenated tyrosine production vs control with no added antioxidant): exhibited MPO enzyme inhibition activity
SMILES: COC(=O)c1cc(OC)c(O[C@@H]2O[C@H](CO[C@@H]3O[C@H](CO)[C@@H](O)[C@H](O)[C@H]3O)[C@@H](O)[C@H](O)[C@H]2O)c(OC)c1 [MGGD, methyl-4-O-[β-D-glucopyranosyl-(1→6)-β-D-glucopyranosyl]-3,5-dimethoxybenzoate]
